We go through eleven molecules from ChEMBL document CHEMBL2424643, “An efficient synthesis, characterization, and antimicrobial screening of tetrahydropyrimidine derivatives” (2013).

What is called MIC is the least concentration at which growth counts as inhibited. A higher MIC goes with a need for much substance.

Common to all, as to format: functional
One test deals with Pseudomonas aeruginosa. The test can be described thus: Antibacterial activity against Pseudomonas aeruginosa MTCC 1688 by two-fold serial dilution method.
The subject of the next test is Staphylococcus aureus. The test can be described thus: Antibacterial activity against Staphylococcus aureus MTCC 96 by two-fold serial dilution method.
For another test, the system named is Candida albicans. The test can be described thus: Antifungal activity against Candida albicans MTCC 227 by two-fold serial dilution method.
The subject of another test is Streptococcus pyogenes. The test can be described thus: Antibacterial activity against Streptococcus pyogenes MTCC 442 by two-fold serial dilution method.
The subject of a further test is Aspergillus niger. The test can be described thus: Antifungal activity against Aspergillus niger MTCC 282 by two-fold serial dilution method.
The test system of a further test is Aspergillus clavatus. The test can be described thus: Antifungal activity against Aspergillus clavatus MTCC 1323 by two-fold serial dilution method.
For the next test, the system named is Escherichia coli. The test can be described thus: Antibacterial activity against Escherichia coli MTCC 443 by two-fold serial dilution method.

In brackets after ≈: the same amount, converted by molar mass.

Consider `CC1=C(C(=O)Nc2ccc(C)cc2C)C(c2ccccc2O)NC(=S)N1` (configuration not stated), for which the minimum inhibitory concentration (MIC) came to 406 µM (≈ 149 µg/mL) against Pseudomonas aeruginosa; 812 µM (≈ 298 µg/mL) in the test with Staphylococcus aureus; 3250 µM (≈ 1190 µg/mL) against Candida albicans; 325 µM (≈ 119 µg/mL) in the test on Streptococcus pyogenes; 3.25 mM (≈ 1190 µg/mL) with Aspergillus niger; 3.25 mM (≈ 1190 µg/mL) in the test on Aspergillus clavatus. For the same molecule, the MIC in the test on Escherichia coli came out at 325 µM (≈ 119 µg/mL).

`CC1=C(C(=O)Nc2ccc(C)cc2C)C(c2ccc([N+](=O)[O-])cc2)NC(=S)N1` (configuration not stated): the MIC came to 812 µM (≈ 322 µg/mL) with Pseudomonas aeruginosa; 812 µM (≈ 322 µg/mL) against Staphylococcus aureus; 1620 µM (≈ 644 µg/mL) in the test with Candida albicans; 812 µM (≈ 322 µg/mL) with Streptococcus pyogenes; 3.25 mM (≈ 1290 µg/mL) against Aspergillus niger; 3.25 mM (≈ 1290 µg/mL) against Aspergillus clavatus. Besides, the MIC against Escherichia coli came to 406 µM (≈ 161 µg/mL).

Consider `CC1=C(C(=O)Nc2ccc(C)cc2C)C(c2cccc(O)c2)NC(=S)N1` (configuration not stated), for which the minimal inhibitory concentration (MIC) is 649 µM (≈ 239 µg/mL) in the test on Pseudomonas aeruginosa; 649 µM (≈ 239 µg/mL) in the test with Staphylococcus aureus; 1620 µM (≈ 597 µg/mL) in the test with Candida albicans; 203 µM (≈ 74.6 µg/mL) in the test on Streptococcus pyogenes; 3.25 mM (≈ 1190 µg/mL) with Aspergillus niger; 3.25 mM (≈ 1190 µg/mL) with Aspergillus clavatus. In addition, the lowest concentration to inhibit growth against Escherichia coli (MIC) was 812 µM (≈ 298 µg/mL).

For the molecule `CC1=C(C(=O)Nc2ccc(C)cc2C)C(c2cccc(Cl)c2)NC(=S)N1` (configuration not stated), the MIC was 649 µM (≈ 251 µg/mL) with Pseudomonas aeruginosa; 812 µM (≈ 313 µg/mL) in the test on Staphylococcus aureus; 1620 µM (≈ 627 µg/mL) against Candida albicans; 649 µM (≈ 251 µg/mL) in the test on Streptococcus pyogenes; 3.25 mM (≈ 1250 µg/mL) against Aspergillus niger; 3.25 mM (≈ 1250 µg/mL) in the test on Aspergillus clavatus. This molecule registered a minimal inhibitory concentration (MIC) against Escherichia coli of 325 µM (≈ 125 µg/mL).

`CC1(C)S[C@@H]2[C@H](NC(=O)[C@H](N)c3ccccc3)C(=O)N2[C@H]1C(=O)O` [AMPICILLIN]: the minimum inhibitory concentration (MIC) in the test with Pseudomonas aeruginosa was 100 µM (≈ 34.9 µg/mL); against Staphylococcus aureus, 250 µM (≈ 87.4 µg/mL); with Streptococcus pyogenes, 100 µM (≈ 34.9 µg/mL); with Escherichia coli, 100 µM (≈ 34.9 µg/mL).

In the case of `CC1=C(C(=O)Nc2ccc(C)cc2C)C(c2cccc([N+](=O)[O-])c2)NC(=S)N1` (configuration not stated), the minimum inhibitory concentration (MIC) against Pseudomonas aeruginosa was found to be 812 µM (≈ 322 µg/mL); against Staphylococcus aureus it was 812 µM (≈ 322 µg/mL); against Candida albicans, 1620 µM (≈ 644 µg/mL); in the test on Streptococcus pyogenes, 649 µM (≈ 257 µg/mL); with Aspergillus niger, 3.25 mM (≈ 1290 µg/mL); in the test on Aspergillus clavatus, 3.25 mM (≈ 1290 µg/mL). Moreover, 649 µM (≈ 257 µg/mL) was the least that counted as inhibitory with Escherichia coli (MIC).

`O=C(N[C@H](CO)[C@H](O)c1ccc([N+](=O)[O-])cc1)C(Cl)Cl` [CHLORAMPHENICOL]: the MIC in the test with Pseudomonas aeruginosa, with Staphylococcus aureus, against Streptococcus pyogenes and with Escherichia coli was 50 µM (≈ 16.2 µg/mL) throughout.

As to NYSTATIN, the MIC in the test with Candida albicans amounted to 100 µM; in the test on Aspergillus niger, 0.1 mM; against Aspergillus clavatus it was 0.1 mM.

Regarding `CC1=C(C(=O)Nc2ccc(C)cc2C)C(c2ccc(Cl)cc2)NC(=S)N1` (configuration not stated), the minimal inhibitory concentration (MIC) in the test with Pseudomonas aeruginosa was determined as 649 µM (≈ 251 µg/mL); against Staphylococcus aureus, 812 µM (≈ 313 µg/mL); in the test on Candida albicans it was 3250 µM (≈ 1250 µg/mL); against Streptococcus pyogenes it was 649 µM (≈ 251 µg/mL); against Aspergillus niger, 3.25 mM (≈ 1250 µg/mL); in the test on Aspergillus clavatus, 3.25 mM (≈ 1250 µg/mL). Also, 812 µM (≈ 313 µg/mL) was the least that counted as inhibitory against Escherichia coli (MIC).

As for `CC1=C(C(=O)Nc2ccc(C)cc2C)C(c2ccccc2[N+](=O)[O-])NC(=S)N1` (configuration not stated), the MIC against Pseudomonas aeruginosa stood at 649 µM (≈ 257 µg/mL); in the test on Staphylococcus aureus it was 649 µM (≈ 257 µg/mL); in the test with Candida albicans, 3250 µM (≈ 1290 µg/mL); with Streptococcus pyogenes it was 406 µM (≈ 161 µg/mL); in the test on Aspergillus niger it was 3.25 mM (≈ 1290 µg/mL); against Aspergillus clavatus it was 3.25 mM (≈ 1290 µg/mL). In addition, in the test with Escherichia coli, the minimal inhibitory concentration (MIC) was 649 µM (≈ 257 µg/mL).

On to `COc1ccc(C2NC(=S)NC(C)=C2C(=O)Nc2ccc(C)cc2C)cc1` (configuration not stated), for which the MIC against Pseudomonas aeruginosa turned out to be 325 µM (≈ 124 µg/mL); in the test with Staphylococcus aureus, 203 µM (≈ 77.4 µg/mL); with Candida albicans, 3250 µM (≈ 1240 µg/mL); in the test on Streptococcus pyogenes, 406 µM (≈ 155 µg/mL); in the test on Aspergillus niger, 3.25 mM (≈ 1240 µg/mL); in the test with Aspergillus clavatus, 3.25 mM (≈ 1240 µg/mL). Further, the MIC with Escherichia coli worked out at 203 µM (≈ 77.4 µg/mL).
